Results as given in ChEMBL document CHEMBL1155237, “Selective inhibitors of the mutant B-Raf pathway: discovery of a potent and orally bioavailable aminoisoquinoline” (J Med Chem, 2009).

Experiments:
[1] = biological target: Mitogen-activated protein kinase 14 (Homo sapiens, UniProt Q16539); assay: Inhibition of p38alpha
[2] = biological target: MAP/microtubule affinity-regulating kinase 4 (Homo sapiens) (UniProt Q96L34); assay: Inhibition of MARK4 assessed as enzyme activity at 1 uM relative to untreated control; parameters: scale not given: the % may be the effect or the level left
[3] = biological target: Dual specificity mitogen-activated protein kinase kinase 6 (Homo sapiens) (UniProt P52564); assay: Inhibition of MEK6 assessed as enzyme activity at 1 uM relative to untreated control; parameters: scale not given: the % may be the effect or the level left
[4] = biological target: Serine/threonine-protein kinase MRCK alpha (Homo sapiens) (UniProt Q5VT25); assay: Inhibition of MRCKA assessed as enzyme activity at 1 uM relative to untreated control; parameters: scale not given: the % may be the effect or the level left
[5] = biological target: Serine/threonine-protein kinase 26 (Homo sapiens) (UniProt Q9P289); assay: Inhibition of MST4 assessed as enzyme activity at 1 uM relative to untreated control; parameters: scale not given: the % may be the effect or the level left
[6] = biological target: Tyrosine-protein kinase JAK3 (Homo sapiens) (UniProt P52333); assay: Inhibition of JAK3 kinase domain 2 assessed as enzyme activity at 1 uM relative to untreated control; parameters: scale not given: the % may be the effect or the level left
[7] = tested on: Mast/stem cell growth factor receptor Kit (Homo sapiens), P10721 [V559D]; assay: Inhibition of KIT V559D mutant assessed as enzyme activity at 1 uM relative to untreated control; parameters: scale not given: the % may be the effect or the level left
[8] = biological target: LIM domain kinase 2 (Homo sapiens) (UniProt P53671); assay: Inhibition of LIMK2 assessed as enzyme activity at 1 uM relative to untreated control; parameters: scale not given: the % may be the effect or the level left
[9] = biological target: Mitogen-activated protein kinase kinase kinase kinase 4 (Homo sapiens) (UniProt O95819); assay: Inhibition of MAP4K4 assessed as enzyme activity at 1 uM relative to untreated control; parameters: scale not given: the % may be the effect or the level left
[10] = biological target: Serine/threonine-protein kinase MARK1 (Homo sapiens) (UniProt Q9P0L2); assay: Inhibition of MARK1 assessed as enzyme activity at 1 uM relative to untreated control; parameters: scale not given: the % may be the effect or the level left
[11] = biological target: Serine/threonine-protein kinase BRSK2 (Homo sapiens) (UniProt Q8IWQ3); assay: Inhibition of BRSK2 assessed as enzyme activity at 1 uM relative to untreated control; parameters: scale not given: the % may be the effect or the level left
[12] = biological target: Calcium/calmodulin-dependent protein kinase type 1G (Homo sapiens) (UniProt Q96NX5); assay: Inhibition of CAMK1G assessed as enzyme activity at 1 uM relative to untreated control; parameters: scale not given: the % may be the effect or the level left
[13] = biological target: Calcium/calmodulin-dependent protein kinase type II subunit alpha (Homo sapiens) (UniProt Q9UQM7); assay: Inhibition of CAMK2A assessed as enzyme activity at 1 uM relative to untreated control; parameters: scale not given: the % may be the effect or the level left
[14] = biological target: Serine/threonine-protein kinase Chk1 (Homo sapiens) (UniProt O14757); assay: Inhibition of CHEK1 assessed as enzyme activity at 1 uM relative to untreated control; parameters: scale not given: the % may be the effect or the level left
[15] = biological target: Receptor-interacting serine/threonine-protein kinase 2 (Homo sapiens) (UniProt O43353); assay: Inhibition of RIPK2 assessed as enzyme activity at 1 uM relative to untreated control; parameters: scale not given: the % may be the effect or the level left
[16] = biological target: Receptor-interacting serine/threonine-protein kinase 4 (Homo sapiens) (UniProt P57078); assay: Inhibition of RIPK4 assessed as enzyme activity at 1 uM relative to untreated control; parameters: scale not given: the % may be the effect or the level left
[17] = biological target: Ribosomal protein S6 kinase alpha-2 (Homo sapiens) (UniProt Q15349); assay: Inhibition of RPS6KA2 kinase domain 2 assessed as enzyme activity at 1 uM relative to untreated control; parameters: scale not given: the % may be the effect or the level left
[18] = biological target: Ribosomal protein S6 kinase alpha-6 (Homo sapiens) (UniProt Q9UK32); assay: Inhibition of RPS6KA6 kinase domain 1 assessed as enzyme activity at 1 uM relative to untreated control; parameters: scale not given: the % may be the effect or the level left
[19] = biological target: STE20-like serine/threonine-protein kinase (Homo sapiens) (UniProt Q9H2G2); assay: Inhibition of SLK assessed as enzyme activity at 1 uM relative to untreated control; parameters: scale not given: the % may be the effect or the level left
[20] = biological target: Proto-oncogene tyrosine-protein kinase Src (Homo sapiens) (UniProt P12931); assay: Inhibition of SRC assessed as enzyme activity at 1 uM relative to untreated control; parameters: scale not given: the % may be the effect or the level left
[21] = biological target: Receptor tyrosine-protein kinase erbB-2 (Homo sapiens) (UniProt P04626); assay: Inhibition of ERBB2 assessed as enzyme activity at 1 uM relative to untreated control; parameters: scale not given: the % may be the effect or the level left
[22] = biological target: Mitogen-activated protein kinase 4 (Homo sapiens) (UniProt P31152); assay: Inhibition of ERK4 assessed as enzyme activity at 1 uM relative to untreated control; parameters: scale not given: the % may be the effect or the level left
[23] = tested on: Receptor-type tyrosine-protein kinase FLT3 (Homo sapiens), P36888 [D835H]; assay: Inhibition of FLT3 D835H mutant assessed as enzyme activity at 1 uM relative to untreated control; parameters: scale not given: the % may be the effect or the level left
[24] = tested on: Receptor-type tyrosine-protein kinase FLT3 (Homo sapiens), P36888 [D835Y]; assay: Inhibition of FLT3 D835Y mutant assessed as enzyme activity at 1 uM relative to untreated control; parameters: scale not given: the % may be the effect or the level left
[25] = biological target: Tyrosine-protein kinase FRK (Homo sapiens) (UniProt P42685); assay: Inhibition of FRK assessed as enzyme activity at 1 uM relative to untreated control; parameters: scale not given: the % may be the effect or the level left
[26] = biological target: Glycogen synthase kinase-3 beta (Homo sapiens) (UniProt P49841); assay: Inhibition of GSK3B assessed as enzyme activity at 1 uM relative to untreated control; parameters: scale not given: the % may be the effect or the level left
[27] = biological target: RAC-beta serine/threonine-protein kinase (Homo sapiens) (UniProt P31751); assay: Inhibition of AKT2 assessed as enzyme activity at 1 uM relative to untreated control; parameters: scale not given: the % may be the effect or the level left
[28] = biological target: RAC-gamma serine/threonine-protein kinase (Homo sapiens) (UniProt Q9Y243); assay: Inhibition of AKT3 assessed as enzyme activity at 1 uM relative to untreated control; parameters: scale not given: the % may be the effect or the level left
[29] = biological target: Phosphatidylinositol 4,5-bisphosphate 3-kinase catalytic subunit alpha isoform (Homo sapiens) (UniProt P42336); assay: Inhibition of PIK3CA assessed as enzyme activity at 1 uM relative to untreated control; parameters: scale not given: the % may be the effect or the level left
[30] = biological target: Serine/threonine-protein kinase pim-3 (Homo sapiens) (UniProt Q86V86); assay: Inhibition of PIM3 assessed as enzyme activity at 1 uM relative to untreated control; parameters: scale not given: the % may be the effect or the level left
[31] = biological target: Phosphatidylinositol 4-phosphate 5-kinase type-1 alpha (Homo sapiens) (UniProt Q99755); assay: Inhibition of PIP5K1A assessed as enzyme activity at 1 uM relative to untreated control; parameters: scale not given: the % may be the effect or the level left
[32] = biological target: Membrane-associated tyrosine- and threonine-specific cdc2-inhibitory kinase (Homo sapiens) (UniProt Q99640); assay: Inhibition of PKMYT1 assessed as enzyme activity at 1 uM relative to untreated control; parameters: scale not given: the % may be the effect or the level left
[33] = biological target: Protein kinase C theta type (Homo sapiens) (UniProt Q04759); assay: Inhibition of PRKCQ assessed as enzyme activity at 1 uM relative to untreated control; parameters: scale not given: the % may be the effect or the level left
[34] = biological target: TGF-beta receptor type-1 (Homo sapiens) (UniProt P36897); assay: Inhibition of TGFBR1 assessed as enzyme activity at 1 uM relative to untreated control; parameters: scale not given: the % may be the effect or the level left
[35] = biological target: Non-receptor tyrosine-protein kinase TNK1 (Homo sapiens) (UniProt Q13470); assay: Inhibition of TNK1 assessed as enzyme activity at 1 uM relative to untreated control; parameters: scale not given: the % may be the effect or the level left
[36] = biological target: Mitogen-activated protein kinase kinase kinase 20 (Homo sapiens) (UniProt Q9NYL2); assay: Inhibition of ZAK assessed as enzyme activity at 1 uM relative to untreated control; parameters: scale not given: the % may be the effect or the level left
[37] = biological target: Tyrosine-protein kinase ZAP-70 (Homo sapiens) (UniProt P43403); assay: Inhibition of ZAP70 assessed as enzyme activity at 1 uM relative to untreated control; parameters: scale not given: the % may be the effect or the level left

Sequence of Proto-oncogene tyrosine-protein kinase Src (Homo sapiens) (P12931 2-536 limits assumed): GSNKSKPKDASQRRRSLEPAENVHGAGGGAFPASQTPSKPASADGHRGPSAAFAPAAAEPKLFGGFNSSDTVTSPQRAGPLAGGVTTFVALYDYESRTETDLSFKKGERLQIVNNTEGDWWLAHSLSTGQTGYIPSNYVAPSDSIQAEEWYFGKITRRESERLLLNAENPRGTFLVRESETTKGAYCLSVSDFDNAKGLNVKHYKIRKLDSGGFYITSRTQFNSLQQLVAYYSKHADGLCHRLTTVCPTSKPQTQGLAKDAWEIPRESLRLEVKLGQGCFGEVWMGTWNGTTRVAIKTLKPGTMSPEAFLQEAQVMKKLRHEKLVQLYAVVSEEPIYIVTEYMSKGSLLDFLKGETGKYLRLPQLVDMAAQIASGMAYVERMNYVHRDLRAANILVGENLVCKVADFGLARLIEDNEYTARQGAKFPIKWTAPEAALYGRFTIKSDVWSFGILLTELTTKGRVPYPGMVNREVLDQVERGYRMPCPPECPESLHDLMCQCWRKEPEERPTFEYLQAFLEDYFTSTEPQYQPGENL
Sequence of Tyrosine-protein kinase JAK3 (Homo sapiens) (P52333 whole entry, the tested form may be a part): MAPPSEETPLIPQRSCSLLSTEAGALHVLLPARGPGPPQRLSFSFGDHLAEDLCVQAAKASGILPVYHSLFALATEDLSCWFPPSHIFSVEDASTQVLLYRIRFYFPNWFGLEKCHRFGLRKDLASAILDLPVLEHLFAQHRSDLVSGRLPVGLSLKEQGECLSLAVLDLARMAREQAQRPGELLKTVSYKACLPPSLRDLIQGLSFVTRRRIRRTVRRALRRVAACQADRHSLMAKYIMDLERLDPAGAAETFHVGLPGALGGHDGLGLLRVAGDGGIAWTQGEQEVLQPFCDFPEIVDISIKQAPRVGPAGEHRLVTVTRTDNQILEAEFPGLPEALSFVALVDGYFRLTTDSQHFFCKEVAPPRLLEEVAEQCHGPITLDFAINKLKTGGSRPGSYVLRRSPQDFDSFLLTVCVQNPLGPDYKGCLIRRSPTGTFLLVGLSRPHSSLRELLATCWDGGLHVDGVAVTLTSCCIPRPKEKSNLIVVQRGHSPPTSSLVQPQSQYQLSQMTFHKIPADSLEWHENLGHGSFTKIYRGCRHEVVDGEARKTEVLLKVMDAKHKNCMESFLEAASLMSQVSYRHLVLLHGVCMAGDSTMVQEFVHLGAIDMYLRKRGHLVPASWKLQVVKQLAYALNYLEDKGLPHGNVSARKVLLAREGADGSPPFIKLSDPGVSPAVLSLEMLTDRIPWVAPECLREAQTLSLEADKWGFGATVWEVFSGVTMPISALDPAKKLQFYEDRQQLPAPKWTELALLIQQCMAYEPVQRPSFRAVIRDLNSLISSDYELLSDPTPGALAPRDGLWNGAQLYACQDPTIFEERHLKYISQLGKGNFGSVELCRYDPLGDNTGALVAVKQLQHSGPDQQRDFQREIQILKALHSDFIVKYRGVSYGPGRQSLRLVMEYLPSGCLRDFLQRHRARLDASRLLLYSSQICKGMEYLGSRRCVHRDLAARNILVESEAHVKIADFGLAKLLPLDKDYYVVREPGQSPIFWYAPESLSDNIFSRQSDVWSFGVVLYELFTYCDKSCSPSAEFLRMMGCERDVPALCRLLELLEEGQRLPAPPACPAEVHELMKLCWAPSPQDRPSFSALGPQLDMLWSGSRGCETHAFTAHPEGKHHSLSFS
Sequence of Phosphatidylinositol 4-phosphate 5-kinase type-1 alpha (Homo sapiens) (Q99755 whole entry): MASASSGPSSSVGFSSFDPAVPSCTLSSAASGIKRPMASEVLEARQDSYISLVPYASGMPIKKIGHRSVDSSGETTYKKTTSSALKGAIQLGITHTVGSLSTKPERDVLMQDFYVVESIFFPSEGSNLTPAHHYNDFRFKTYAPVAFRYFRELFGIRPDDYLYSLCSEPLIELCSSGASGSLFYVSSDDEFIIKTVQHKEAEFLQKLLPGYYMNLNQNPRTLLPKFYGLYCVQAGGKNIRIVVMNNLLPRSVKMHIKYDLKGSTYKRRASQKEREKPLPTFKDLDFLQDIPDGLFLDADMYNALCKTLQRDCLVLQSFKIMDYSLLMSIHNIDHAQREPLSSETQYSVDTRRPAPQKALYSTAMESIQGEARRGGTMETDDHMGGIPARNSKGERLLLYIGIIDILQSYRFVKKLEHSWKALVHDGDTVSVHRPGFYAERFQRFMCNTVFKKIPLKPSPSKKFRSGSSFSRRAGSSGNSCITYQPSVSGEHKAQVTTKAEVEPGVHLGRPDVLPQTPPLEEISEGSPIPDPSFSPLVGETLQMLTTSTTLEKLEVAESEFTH
Sequence of RAC-beta serine/threonine-protein kinase (Homo sapiens) (P31751 whole entry): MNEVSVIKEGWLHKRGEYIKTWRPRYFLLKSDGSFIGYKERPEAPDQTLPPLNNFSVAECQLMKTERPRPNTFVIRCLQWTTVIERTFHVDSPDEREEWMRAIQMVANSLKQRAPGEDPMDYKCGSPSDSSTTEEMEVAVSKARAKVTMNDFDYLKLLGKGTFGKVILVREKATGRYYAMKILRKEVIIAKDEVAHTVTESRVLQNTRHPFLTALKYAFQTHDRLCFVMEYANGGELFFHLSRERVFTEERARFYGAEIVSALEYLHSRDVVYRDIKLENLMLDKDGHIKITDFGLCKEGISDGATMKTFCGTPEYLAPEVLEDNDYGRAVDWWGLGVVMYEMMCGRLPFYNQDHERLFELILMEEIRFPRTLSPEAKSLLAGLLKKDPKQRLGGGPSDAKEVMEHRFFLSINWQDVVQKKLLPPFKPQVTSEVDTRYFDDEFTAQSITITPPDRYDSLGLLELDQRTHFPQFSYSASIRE
Sequence of Dual specificity mitogen-activated protein kinase kinase 6 (Homo sapiens) (P52564 whole entry): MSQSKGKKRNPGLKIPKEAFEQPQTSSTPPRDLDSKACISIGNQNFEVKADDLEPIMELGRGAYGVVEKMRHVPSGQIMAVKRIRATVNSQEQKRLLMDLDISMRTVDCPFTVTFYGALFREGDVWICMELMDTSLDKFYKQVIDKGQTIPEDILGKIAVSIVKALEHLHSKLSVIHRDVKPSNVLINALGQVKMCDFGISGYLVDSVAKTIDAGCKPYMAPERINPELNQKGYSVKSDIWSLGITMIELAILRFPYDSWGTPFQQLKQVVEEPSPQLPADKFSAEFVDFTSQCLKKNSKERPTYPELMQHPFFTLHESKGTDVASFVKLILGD
Sequence of Ribosomal protein S6 kinase alpha-6 (Homo sapiens) (Q9UK32 whole entry, the tested form may be a part): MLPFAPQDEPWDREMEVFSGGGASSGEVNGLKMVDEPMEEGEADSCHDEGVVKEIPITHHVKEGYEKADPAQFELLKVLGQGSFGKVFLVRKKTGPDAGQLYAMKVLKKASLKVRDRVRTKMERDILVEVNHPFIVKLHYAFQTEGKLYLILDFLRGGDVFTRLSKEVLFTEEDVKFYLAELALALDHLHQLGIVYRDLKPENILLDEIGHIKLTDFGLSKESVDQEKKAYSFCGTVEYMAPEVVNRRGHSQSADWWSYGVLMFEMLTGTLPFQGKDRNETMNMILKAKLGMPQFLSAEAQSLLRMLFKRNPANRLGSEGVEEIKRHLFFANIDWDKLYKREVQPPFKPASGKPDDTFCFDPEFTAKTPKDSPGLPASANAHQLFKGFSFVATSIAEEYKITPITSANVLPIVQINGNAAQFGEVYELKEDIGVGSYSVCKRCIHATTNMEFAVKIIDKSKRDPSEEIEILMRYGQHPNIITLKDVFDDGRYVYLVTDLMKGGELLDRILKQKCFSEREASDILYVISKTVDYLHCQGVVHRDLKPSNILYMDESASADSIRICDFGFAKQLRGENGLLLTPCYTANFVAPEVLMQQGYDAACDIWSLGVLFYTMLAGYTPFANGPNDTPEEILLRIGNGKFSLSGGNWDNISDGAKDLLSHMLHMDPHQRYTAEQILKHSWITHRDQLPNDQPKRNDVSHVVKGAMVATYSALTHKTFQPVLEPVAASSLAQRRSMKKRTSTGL
Sequence of Glycogen synthase kinase-3 beta (Homo sapiens) (P49841 whole entry, looked up): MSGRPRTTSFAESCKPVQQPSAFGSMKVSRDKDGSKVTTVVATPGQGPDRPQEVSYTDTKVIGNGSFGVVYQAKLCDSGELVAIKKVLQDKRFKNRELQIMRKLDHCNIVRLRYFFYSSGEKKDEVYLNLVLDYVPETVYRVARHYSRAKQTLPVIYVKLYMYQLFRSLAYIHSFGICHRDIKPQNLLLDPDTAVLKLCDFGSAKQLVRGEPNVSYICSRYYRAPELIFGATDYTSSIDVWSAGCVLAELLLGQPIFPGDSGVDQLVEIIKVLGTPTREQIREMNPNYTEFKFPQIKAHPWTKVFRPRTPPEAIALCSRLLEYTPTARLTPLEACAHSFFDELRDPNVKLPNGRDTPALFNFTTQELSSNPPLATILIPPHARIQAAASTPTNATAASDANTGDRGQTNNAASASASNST
Sequence of LIM domain kinase 2 (Homo sapiens) (P53671 whole entry, looked up, the tested form may be a part): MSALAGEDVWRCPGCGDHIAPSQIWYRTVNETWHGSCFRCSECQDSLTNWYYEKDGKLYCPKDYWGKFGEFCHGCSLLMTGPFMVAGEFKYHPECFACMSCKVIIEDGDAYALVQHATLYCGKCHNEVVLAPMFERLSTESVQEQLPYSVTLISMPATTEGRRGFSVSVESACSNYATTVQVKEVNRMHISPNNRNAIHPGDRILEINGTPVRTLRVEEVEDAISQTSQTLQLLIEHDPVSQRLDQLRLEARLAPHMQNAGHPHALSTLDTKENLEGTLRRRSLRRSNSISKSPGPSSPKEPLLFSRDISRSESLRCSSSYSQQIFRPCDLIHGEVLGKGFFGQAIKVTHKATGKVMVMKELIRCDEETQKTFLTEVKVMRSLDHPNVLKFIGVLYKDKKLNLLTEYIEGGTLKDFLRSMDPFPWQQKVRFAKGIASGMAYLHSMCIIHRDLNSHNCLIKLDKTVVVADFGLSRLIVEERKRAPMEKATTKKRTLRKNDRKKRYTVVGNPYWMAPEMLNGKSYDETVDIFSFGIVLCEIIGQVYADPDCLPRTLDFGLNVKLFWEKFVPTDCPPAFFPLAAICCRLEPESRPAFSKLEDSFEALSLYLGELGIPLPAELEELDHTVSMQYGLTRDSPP

For Cc1ccc2c(Nc3ccc(Cl)cc3)nccc2c1Nc1ncccc1-c1ncnc2[nH]cnc12.Cl.Cl.Cl, the IC50 [1] was over 1600 nM, the Activity [2] was 100% and the Activity [3] was 96%. For the same compound, the Activity [4] was 87%, the Activity [5] was 100% and the Activity [6] was 100%. It also gave an Activity [7] of 36%, an Activity [8] of 98% and an Activity [9] of 95%. It also gave an Activity [10] of 97%, an Activity [11] of 87% and an Activity [12] of 100%. It also gave an Activity [13] of 100%, an Activity [14] of 100% and an Activity [15] of 100%. The Activity [16] was 64%, the Activity [17] was 81% and the Activity [18] was 92%. For the same compound, the Activity [19] was 40%, the Activity [20] was 73% and the Activity [21] was 97%. The Activity [22] was 100%, the Activity [23] was 99% and the Activity [24] was 92%. It also gave an Activity [25] of 17%, an Activity [26] of 100% and an Activity [27] of 88%. The Activity [28] was 96%, the Activity [29] was 100% and the Activity [30] was 100%. For the same compound, the Activity [31] was 95%, the Activity [32] was 85% and the Activity [33] was 100%. For the same compound, the Activity [34] was 89%, the Activity [35] was 100% and the Activity [36] was 87%. It also gave an Activity [37] of 100%.
